Non-standard residues stand in square brackets, D forms with d. No end group written: not given here.

The values that follow come from patent US20140378395A1, “Peptides for the Treatment of Hearing” (13Therapeutics, Inc., priority 2011, published 2014).

Series [1] deals with TNF-α secretion from RAW264.7 cells. In words: Inhibition of CpG-ODN-induced TNF-α secretion from RAW264.7 cells (ELISA). To be noted: for activity compared with P13 (inhibition of TNF-α after stimulation of RAW264.7 cells with CpG): SAR, versus P13; for Percent Inhibition of TNF-α secretion, CpG Stimulation / Inhibition of TNF-α secretion (percent inhibition) / Percent Inhibition of TNF-α secretion: RAW264.7, 4 hours; for Percent Inhibition of TNF-α secretion, CpG Stimulation: 1.25 ug/ml CpG-ODN; for Inhibition of TNF-α secretion (percent inhibition) / Percent Inhibition of TNF-α secretion: 1 μg/ml CpG-ODN. The series is classed as cell-based, murine. Here is the method: (§1) RAW264.7 cells were plated at 1.5×10^5 cells/well-3×10^5 cells/well in 48-well plates. After 24 hours, the cells were incubated with peptides at various concentrations at room temperature in triplicate either before, simultaneous with, or after activation with various PAMPs for 18 hours. Cell-free supernatants were analyzed for cytokines by ELISA, in quadruplicate. RAW264.7 cells were stimulated with either CpG-ODN (1 μg/ml or 1.25 μg/ml), LPS (about 1 ng/ml), Poly (I:C) (about 10 μg/ml), flagellin (about 5 ng/ml), or zymosan (about 10 μg/ml). Dose response curves were done with each PAMP to determine optimal stimulation concentration. For CpG-ODN stimulation, cells were incubated for 4 hours at 37° C., supernatants collected, and TNF-α measured by ELISA. Any cytokine involved in inflammatory disease mediated toll receptor signaling can be measured using similar assays.
The effect of several peptides on TNF-α secretion from RAW264.7 cells in response to stimulation by CpG-ODN was studied. Each peptide was initially tested at 3 concentrations, 37 μM, 22.2 μM, and 11.1 μM. […] The peptides were then tested at 11.1 μM, 7.4 μM, and 3.7 μM (Table 3). […] Cell viability was examined for each peptide at the concentrations tested for TNF-α inhibition.
(§2) Inhibition of TNF-α secretion by various T-peptides was examined. RAW264.7 cells were plated at 3×10^5 cells/well in 48-well plates. After 24 h the cells were incubated with peptide at various concentrations at room temperature in triplicate for 15 minutes and then stimulated with 1.25 ug/ml CpG-ODN or 1 ng/ml LPS. Cells were then incubated for 4 hours at 37° C., supernatants collected, and TNF-α measured by ELISA. Percent inhibition was calculated by comparing TNF-α secretion from cells incubated with peptide to control cells with no peptide treatment. The inhibitive effects of peptides T3 (SEQ ID NO: 319), T11 (SEQ ID NO: 327), T21 (SEQ ID NO: 337), T36 (SEQ ID NO: 352), T37 (SEQ ID NO: 353), T51 (SEQ ID NO: 367), and T52 (SEQ ID NO: 368) were compared to inhibition by an analogue of P13 (SEQ ID NO: 369) having a sequence of nine arginine residues at the C-terminus (P13-R^9 (SEQ ID NO: 378)). (Table 4).
For orientation: ELISA stands for enzyme-linked immunosorbent assay.

Series [2] shares this test system. In words: Inhibition of LPS-induced TNF-α secretion from RAW264.7 cells (ELISA). The format is cell-based, murine. The conditions noted are these: 1 ng/ml LPS, 4 hours. Here is the method: as §1, §2
In a further series the test system is C3H/HeJ mice. In words: Topical treatment in chronic otitis media (COM) model, ABR. The format is in vivo, mouse.
Series [3] has as its system BALB/c mice. The series is described as follows: LPS-induced septic shock model, pro-inflammatory mediators. The format is in vivo. To be noted: mouse model. As for the experimental part:
BALB/c mice are injected i.p. with PBS, LPS at about 100 μg/mouse/250 μl, or about 100 μg LPS plus various doses of peptides. Serum is collected at about 2 and about 6 hours after treatment and evaluated for the pro-inflammatory cytokines MIP-2 and TNF-α by ELISA, and for soluble ICAM-1.

In series [4] the test system is toll-like receptor-dependent signaling. In words: Cytokine secretion / signaling in response to TLR activation in vitro. The series is classed as cell-based. Here is the method: as §1
The test system of series [5] is BALB/c mice. The series is described as follows: Middle ear inflammation: heat-inactivated S. pneumoniae plus peptide injected into the middle ear, histology after 3 days. The format is in vivo, mouse. The conditions noted are these: single dose with heat-inactivated S. pneumoniae; paired t-tests.
Series [6] concerns TNF-α secretion from RAW264.7 cells. In words: Inhibition of CpG-ODN-induced TNF-α secretion from RAW264.7 cells (ELISA). The series is classed as cell-based, murine. The conditions noted are these: peptide 3.1 μM (Table 3), 1 μg/ml CpG-ODN, 4 hours.
For series [7], the system named is BALB/c mice. In words: Assay for crossing the tympanic membrane by FITC-labeled peptide. The format is in vivo, mouse. To be noted: 10 μg/30 μl dropped on ear, 10 minutes; AOM ears; fluorescent microscopy. As for the experimental part:
Three BALB/c mice at 8-12 weeks of age were anesthetized with ketamine (100 mg/kg) and xylazine (20 mg/kg) prior to administration of bacteria. A ventral midline incision was made in the neck, and the bulla exposed after blunt dissection. The middle ear was inoculated through the bony wall with approximately 3.5 μL of a bacterial suspension (heat inactivated S. pneumoniae 10^10 CFU/ml) with a thin needle. Both the right and left ears received bacteria by bulla injection.
After 24 hours, animals received an otoscopic exam using an operating microscope. Mice were anesthetized as described above, and the tympanic membrane was inspected for the presence or absence of the following three criteria for acute otitis media (AOM): 1) middle ear effusion behind the tympanic membrane; 2) change in color of the tympanic membrane from clear to red or white (indicating inflammation and/or purulence in the middle ear); and 3) change in position of the tympanic membrane from neutral to bulging or retracted.
Four ears met the criteria for AOM. FITC labeled peptide P13-R^9 (SEQ ID NO: 378) (10 μg/30 μl) was dropped onto the middle ear. The peptide was allowed to absorb for 10 minutes. After 10 minutes, the external ear canal was flushed twice, and blotted to get rid of any remaining peptide. […]

For AIVKLTVYDCIRRRRRRRRR [T3-R^9], the “activity compared with P13 (inhibition of TNF-α after stimulation of RAW264.7 cells with CpG)” value in series [1] is recorded as “superior activity”. Also, the results for the “Percent Inhibition of TNF-α secretion, CpG Stimulation” value in series [1] (peptide 7.1 μM), in series [1] (peptide 11.1 μM) and in series [1] (peptide 22 μM) were 85%, 92% and 99%, respectively. Also, the “Percent Inhibition of TNF-α secretion, LPS Stimulation” value (“Percent Inhibition … LPS Stimulation” for short) was 33% in series [2] (peptide 7.4 uM), 65% in series [2] (peptide 11.1 uM) and 77% in series [2] (peptide 22.2 uM).
For the substance “D-Asp-D-Ile-D-Val-D-Lys-D-Leu-D-Thr-D-Val-D-Tyr-D-Asp-D-Cys-D-Ile ([dD][dI][dV][dK][dL][dT][dV][dY][dD][dC][dI]) [D-P13, stereoisomer of P13 containing all D-amino acid residues]”, in the series on C3H/HeJ mice (week 2 post-treatment), the “improvement of hearing thresholds across all frequencies” value is on record as “approximately 20 db”. In addition, the “hearing thresholds by ABR across all four frequencies” value with C3H/HeJ mice (weeks 1 and 2 post-treatment) was “demonstrated efficacy”.
DIVKLTVYACIRRRRRRRRR [T11-R^9]: the “activity compared with P13 (inhibition of TNF-α after stimulation of RAW264.7 cells with CpG)” value in series [1] is “superior activity”. Besides, the “Percent Inhibition … LPS Stimulation” value in series [2] (peptide 7.4 uM) was 68%; in series [2] (peptide 11.1 uM) it was 81%; in series [2] (peptide 22.2 uM), 91%.
In the case of DIVKLTVYDCIRRRRRRRRR [P13-R^9], the “pro-inflammatory mediators in LPS-induced septic shock” value in the series on BALB/c mice [3] is “reduce pro-inflammatory mediators”. The figures for the “Percent Inhibition of TNF-α secretion, CpG Stimulation” value in series [1] (peptide 7.1 μM), in series [1] (peptide 11.1 μM) and in series [1] (peptide 22 μM) were 32%, 65% and 86%, respectively. Moreover, the figures for the “Percent Inhibition … LPS Stimulation” value in series [2] (peptide 7.4 uM), in series [2] (peptide 11.1 uM) and in series [2] (peptide 22.2 uM) were 0%, 13% and 69%, respectively. Further, in series [4], the “cytokine secretion from cell activation initiated independent of TLR stimulation” value is given as “no effect”. The “cytokine secretion in response to TLR activation” value in series [4] (TLR ligands individually or in combination) was “effectively inhibited”. Besides, in the series with BALB/c mice [5], the “bacterial-induced middle ear inflammation (amount of fluid, infiltrating cell number, thickness of the tympanic membrane)” value was “dramatically reduced”.
Take “EMFTILEEYFMYRGLLGLRRRRRRRRR (C-terminal nona-arginine (R9)) [77(S13)-R^9]”: the “Inhibition of TNF-α secretion (percent inhibition)” value (“Inhibition … (percent inhibition)” for short) in series [1] (peptide 7 μM (Table 3)) stood at 77%; in series [1] (peptide 11 μM (Table 3)) it was 81%; in series [6] it was 18%. The “Percent Inhibition of TNF-α secretion” value in series [1] (peptide 11.1 μM) turned out to be 84%; in series [1] (peptide 22.2 μM), 89%; in series [1] (peptide 37 μM) it was 93%.
Turning to “EMFTILEEYFMYRGLLGLRRRRRRRRRR (C-terminal nona-arginine (R9)) [76(S12)-R^9]”, the results for the “Inhibition … (percent inhibition)” value in series [1] (peptide 7 μM (Table 3)), in series [1] (peptide 11 μM (Table 3)) and in series [6] were 67%, 84% and 44%, respectively. The “Percent Inhibition of TNF-α secretion” value in series [1] (peptide 11.1 μM) was determined as 82%; in series [1] (peptide 22.2 μM), 84%; in series [1] (peptide 37 μM), 87%.
As for “EMFTILEEYFMYRGLLRRRRRRRRR (C-terminal nona-arginine (R9)) [79(S14)-R^9]”, the results for the “Inhibition … (percent inhibition)” value in series [1] (peptide 7 μM (Table 3)), in series [1] (peptide 11 μM (Table 3)) and in series [6] were 77%, 86% and 0%, respectively. For the same substance, the “Percent Inhibition of TNF-α secretion” value turned out to be 85% in series [1] (peptide 11.1 μM), 93% in series [1] (peptide 22.2 μM) and 97% in series [1] (peptide 37 μM).
For “EMFTILEEYFMYRGLRRRRRRRRR (C-terminal nona-arginine (R9)) [80(S15)-R^9]”, the “Inhibition … (percent inhibition)” value in series [1] (peptide 7 μM (Table 3)) turned out to be 68%; in series [1] (peptide 11 μM (Table 3)), 81%; in series [6] it was 57%. Further, the “Percent Inhibition of TNF-α secretion” value was 78% in series [1] (peptide 11.1 μM), 87% in series [1] (peptide 22.2 μM) and 91% in series [1] (peptide 37 μM).
In the case of “EMFTILEEYFMYRGRRRRRRRRR (C-terminal nona-arginine (R9)) [81(S16)-R^9]”, the figures for the “Inhibition … (percent inhibition)” value in series [1] (peptide 7 μM (Table 3)), in series [1] (peptide 11 μM (Table 3)) and in series [6] were 53%, 70% and 26%, respectively. Also, the “Percent Inhibition of TNF-α secretion” value in series [1] (peptide 11.1 μM) came out at 84%; in series [1] (peptide 22.2 μM), 86%; in series [1] (peptide 37 μM), 90%.
In the case of “EMFTILEEYFMYRRRRRRRRR (C-terminal nona-arginine (R9)) [83(S17)-R^9]”, the “Inhibition … (percent inhibition)” value in series [1] (peptide 7 μM (Table 3)) was 44%; in series [1] (peptide 11 μM (Table 3)), 57%; in series [6], 0%. The results for the “Percent Inhibition of TNF-α secretion” value in series [1] (peptide 11.1 μM), in series [1] (peptide 22.2 μM) and in series [1] (peptide 37 μM) were 72%, 82% and 89%, respectively.
On to “FITC-labeled P13-R^9: FITC (Fluorescein isothiocyanate) labeled peptide P13-R^9 (SEQ ID NO: 378) (DIVKLTVYDCIRRRRRRRRR; also: FITC label, position not given here)”, for which the “crossing of the tympanic membrane and association with cells in middle ear fluid” value in the series with BALB/c mice [7] is “crosses the tympanic membrane”.
As for “FTILEEYFMYRGLLGLRIKYGRLFNEIRRRRRRRRR (C-terminal nona-arginine (R9)) [44(S3)-R^9]”, the “Inhibition … (percent inhibition)” value is listed as 24% in series [1] (peptide 7 μM (Table 3)), 78% in series [1] (peptide 11 μM (Table 3)) and 0% in series [6]. Besides, the “Percent Inhibition of TNF-α secretion” value turned out to be 91% in series [1] (peptide 11.1 μM), 96% in series [1] (peptide 22.2 μM) and 95% in series [1] (peptide 37 μM).
As for “MFTILEEYFMYRGLLGLRIKYGRLFNEIRRRRRRRRR (C-terminal nona-arginine (R9)) [43(S2)-R^9]”, the “Inhibition … (percent inhibition)” value in series [1] (peptide 7 μM (Table 3)) amounted to 51%; in series [1] (peptide 11 μM (Table 3)) it was 70%; in series [6], 0%. The “Percent Inhibition of TNF-α secretion” value was 91% in series [1] (peptide 11.1 μM), 94% in series [1] (peptide 22.2 μM) and 100% in series [1] (peptide 37 μM).
